Source: patent US12472213B2, “Strains of Lactobacillus delbrueckii which inhibit Porphyromonas gingivalis” (Trustees of Tufts College, priority 2019, dated 2025)
Like-named read-outs stand apart in the source and are kept apart here.

Tests used:
[1] = tested on: Lactobacillus delbrueckii STYM1 strain pyruvate oxidase (L. delbrueckii Pox, LDBND_1487), wild type, full-length; assay: Phospholipid activation assay of L. delbrueckii Pox; type: biochemical; conditions: various concentrations; 16:0-18:1 acyl chains
Procedure: (§1) Pyruvate oxidase enzyme or pyruvate:oxygen 2-oxidoreductase (phosphorylating) (EC 1.2.3.3) was derived from Lactobacillus delbrueckii STYM1 strain (16).
Pyruvate oxidase activity was measured as previously described (16). Briefly, 50 mM sodium pyruvate, 15 μM FAD, 300 μM TPP, 0.03% N-ethyl-N-(2-hydroxy-3-sulfopropyl)-m-toluidine (sigma), 0.015% 4-aminoantipyrine (sigma), and 33 μg/mL horseradish peroxidase (Sigma) were combined with purified pox enzyme. After a 10-minute incubation at room temperature, sodium phosphate pH 5.6 was added to 50 mM final concentration to initiate the reaction. The formation of a quinoneimine dye at 25° C. was measured by an increase in absorbance at 550 nm and the specific activity was calculated as described. 1 unit of Pox activity is defined as the production of 1 μmol of hydrogen peroxide per minute and this was converted to μM/min for kinetic analysis.
Phosphotidylethanolamine (16:0-18:1) (Avanti Lipids), Phosphotidylcholine (16:0-18:1) (Avanti Lipids), and Phosphotidylglycerol (16:0-18:1) (Avanti Lipids) dissolved in chloroform were evaporated under a steady stream of argon gas and dried in a vacuum desiccator for 1 hour to evaporate residual chloroform. The phospholipids were resuspended in 20 mM Bis-Tris 150 mM NaCl pH 6 and incubated at 37° C. with shaking at 225 rpm for 30 minutes. The suspension was vortexed for 30 seconds and vortexed immediately prior to each use.
(§2) Phospholipids were added to the pyruvate oxidase assay mixture at various concentrations and enzyme activity was measured as described above. Fold activity was calculated relative to enzyme activity without phospholipid.

[2] = tested on: Lactobacillus delbrueckii STYM1 strain pyruvate oxidase (L. delbrueckii Pox, LDBND_1487), wild type, C-terminal His6; assay: Pyruvate oxidase activity assay and kinetic parameters (oxidative coupling, H2O2 production, A550); type: biochemical; conditions: for Km: 25° C.
Procedure: The C-terminal primer encoded a glycine-serine linker followed by a 6-histidine tag and a stop codon. The PCR product was ligated into the pFLAG-CTC vector (Sigma) using the NdeI and XhoI restriction sites and transformed into DH5α E. coli resulting in the plasmid pFLAG-CTC_Pox. The construct was confirmed by PCR and sequencing. pFLAG-CTC_Pox was transformed into LOBSTR E. coli in which Pox was expressed as a C-terminal His6-Pox. A 6 mL starter culture was incubate at 37° C. overnight in LB supplemented with 100 μg/mL of ampicillin. The starter culture was diluted 1:100 into 40 mL of LB supplemented with 100 μg/mL of ampicillin and grown at 37° C. until the OD600 reached 0.4-0.8. The temperature was then shifted to 26° C. and the cells were incubated with 1 mM isopropyl-β-D-thiogalactopyranoside (IPTG) for 20 hours. The cells were harvested by centrifugation at 3,200×g for 10 minutes, resuspended in 1 mL PBS EDTA-free cOmplete protease inhibitor cocktail (Roche), and lysed by sonication on ice, as described above. […] Protein purity was assessed by SDS-PAGE and Coomassie staining.
Pyruvate oxidase activity of recombinant Pox was assessed by an oxidative coupling reaction. […] Immediately upon addition of purified Pox, the formation of a quinoneimine dye was measured by an increase in the absorbance at 550 nm which was recorded every 30 seconds at room temperature. […] Pox activity is assessed by determining the change in absorbance at 550 nm per minute. […] Activity was determined according to the following equation: specific activity=[(ΔA550/min)(dilution factor)(total reaction volume)]/[(36.88)(0.5)(path length)(sample volume)(C)], where the total reaction volume is 1 ml, the millimolar extinction coefficient of quinoneimine dye is 36.88, the factor of 0.5 was determined based on the fact that 1 mol of hydrogen peroxide produces 0.5 mol of quinoneimine dye, the light path length is 1 cm, the sample volume is 0.1 ml, and C is the concentration of undiluted enzyme in mg/ml. […]
Pyruvate oxidase activity was measured as previously described (16). […]

[3] = tested on: Lactobacillus delbrueckii STYM1 pyruvate oxidase variant Δ32 (C-terminal truncation lacking the last 32 amino acids); assay: Phospholipid activation assay of L. delbrueckii Pox Δ32; type: biochemical; conditions: various PE concentrations
Source text: The C-terminus of E. coli Pox is important for lipid activation of the enzyme (13). To test if the C-terminus was important in the L. delbrueckii Pox, a C-terminal truncation was generated that lacked the last 32 amino acids. The enzyme was purified and tested for its ability to be activated by PE (FIG. 18A). […] This is consistent with the E. coli pox truncation having greater activity partially mimicking lipid activation (20). Furthermore, the Δ32 enzyme was only weakly activated by PE to approximately 2-fold greater than the enzyme without PE compared to an approximately 6-fold activation with the full-length enzyme (FIG. 15B and FIG. 18C).
The PCR product was ligated into the pFLAG-CTC vector (Sigma, St. Louis, MO) using the NdeI and XhoI restriction sites. […] The construct was transformed into LOBSTR E. coli, in which the L. delbrueckii Δ32 Pox was expressed as a C-terminal His6-Pox. […] Protein purity was assessed by SDS-PAGE and Coomassie staining.
Pyruvate oxidase activity was measured as previously described (16). […] The formation of a quinoneimine dye at 25° C. was measured by an increase in absorbance at 550 nm and the specific activity was calculated as described. […]
as §2

[4] = tested on: Lactobacillus delbrueckii STYM1 strain pyruvate oxidase (L. delbrueckii Pox, LDBND_1487), wild type; assay: PE co-sedimentation; type: binding; conditions: 1 mM PE, 50 mM pyruvate, 300 μM TPP, 15 μM FAD, 30 minutes at room temperature
Procedure: as §1
PE was prepared as described above for activation experiments. 3 μg of L. delbrueckii Pox was incubated with 50 mM pyruvate, 300 μM TPP, and 15 μM FAD with either 1 mM PE or no PE for 30 minutes at room temperature. The PE fraction was precipitated by centrifugation at 16,000×g for 20 minutes at 4° C. The supernatant was aspirated as the soluble fraction and the PE pellet was resuspened in an equal amount of buffer. The fractions were visualized by Coomassie staining after SDS-PAGE.

CCCCCCCC/C=C\CCCCCCCC(=O)O[C@H](COC(=O)CCCCCCCCCCCCCCC)COP(=O)([O-])OCC[N+](C)(C)C [PC, Phosphotidylcholine (16:0-18:1)]
catalytic activation by phospholipid (in words) [1]: not PC or PG

CCCCCCCC/C=C\CCCCCCCC(=O)O[C@H](COC(=O)CCCCCCCCCCCCCCC)COP(=O)(O)OCCN [PE, Phosphotidylethanolamine (16:0-18:1)]
increase in kcat relative to the enzyme in the absence of PE ([2]; 7.2 mM PE vs no PE): approximately 18 fold | catalytic activation by phospholipid (in words) [1]: catalytically activated specifically by PE | fold activity relative to the enzyme without PE [3]: approximately 2 fold | co-precipitation with PE [4]: did not co-precipitate with PE

phosphate
Km ([2]; with 7.2 mM PE, 170 nM enzyme, read-out: km for phosphate (with PE)): 1.25 mM | Km ([2]; without PE, 1.76 μM enzyme, pyruvate 50 mM, pH 5.6, read-out: km for phosphate): 8 mM

CCCCCCCC/C=C\CCCCCCCC(=O)O[C@H](COC(=O)CCCCCCCCCCCCCCC)COP(=O)(O)OCC(O)CO (some centres unmarked) [PG, Phosphotidylglycerol (16:0-18:1)]
catalytic activation by phospholipid (in words) [1]: not PC or PG
